Results as given in patent publication EP0643971A2, “Antifungal compositions consisting of an antifungal agent, e.g. antibiotic R-106I, and a fungal MDR inhibitor” (priority 1993, dated 1995).

Test system: Penicillium chrysogenum
Experiment: Potentiation of hygromycin B toxicity by trifluoroperazine, growth of regenerating protoplasts on agar
Format: cell-based
Parameters: key to Growth: +: growth of the Penicillium chrysogenum cells, and therefore, that the toxic effect of hygromycin B was not potentiated by TFP; -: no growth of the Penicillium chrysogenum culture, and therefore, that the toxic effect of hygromycin B was potentiated by trifluoroperazine
Conditions: for Growth: 28°C, 48 hours
Text: Protoplasts of Penicillium chrysogenum (Eli Lilly and Co.) were formed with Novozyme 234 in substantial accordance with the procedure described for Cephalosporium acremonium by Queener et al., 1985 Microbiology 1985, American Society for Microbiology, pp 468-472, and by Skatrud et al., 1987, Current Genetics, 12:337-348. During formation of the P. chrysogenum, protoplasts and subsequent cell wall regeneration, sucrose was used as an osmotic stabilizer rather than sodium chloride as described in the above references. Petri plates were prepared that contained an agar layer consisting of: yeast nitrogen base without amino acids and ammonium sulfate (1.7 g/L) (Difco Laboratories, Detroit, MI); ammonium sulfate (5 g/L); and sucrose (125 g/L); trifluoroperazine (final concentration […]; Sigma Chemical Co. Catalog #T-8516); and cadmium chloride (final concentration 3 mM/ml). Approximately 3 X 10⁷ Penicillium chrysogenum protoplasts were delivered to the surface of the solidified agar in a 4 ml soft agar overlay consisting of the following ingredients: yeast nitrogen base without amino acids and ammonium sulfate (1.7 g/L) (Difco Laboratories, Detroit, MI); ammonium sulfate (5 g/L); sucrose (125 g/L); and agar (4 g/L). The plates were incubated overnight at 15°C.
The next morning hygromycin B (final concentration […]; Boehringer Mannheim Catalog #843 555) was added to the plates in a 4 ml soft agar overlay consisting of yeast nitrogen base without amino acids and ammonium sulfate (1.7 g/L) (Difco Laboratories, Detroit, MI); ammonium sulfate (5 g/L); sucrose (125 g/L); and agar (4 g/L). The plates were incubated at 28°C for 48 hours.
In Table 2, a result of "+" indicates growth of the Penicillium chrysogenum cells, and therefore, that the toxic effect of hygromycin B was not potentiated by TFP. A result of "-" indicates no growth of the Penicillium chrysogenum culture, and therefore, that the toxic effect of hygromycin B was potentiated by trifluoroperazine.

Structure (SMILES) | Growth (Hygromycin B 0.250 mg/ml, TFP 250 µM) | Growth (Hygromycin B 1 mg/ml, TFP 500 µM) | Growth (Hygromycin B 2 mg/ml, TFP 500 µM) | Growth (Hygromycin B 3 mg/ml, TFP 500 µM) | Growth (Hygromycin B 4 mg/ml, TFP 500 µM) | Growth (Hygromycin B 5 mg/ml, TFP 0 µM) | Growth (Hygromycin B 5 mg/ml, TFP 500 µM) | Growth (Hygromycin B 0 mg/ml, TFP 500 µM) | toxic effect of hygromycin B on Penicillium chrysogenum (in the presence of triflouroperazine, summary of Table 2)
CN[C@H]1C[C@@H](N)[C@H](O)[C@@H](O[C@@H]2O[C@H](CO)[C@H](O)[C@@H]3OC4(O[C@H]23)O[C@H]([C@@H](N)CO)[C@H](O)[C@H](O)[C@H]4O)[C@@H]1O (stereo partly drawn) [Hygromycin B, hygromycin B] | - | - | - | - | - | + | - |  | 
CN1CCN(CCCN2c3ccccc3Sc3ccc(C(F)(F)F)cc32)CC1 [TFP, trifluoroperazine] |  |  |  |  |  |  |  | + | potentiated
